Measured values: patent publication US20260151398A1, “COMPOUNDS FOR REDUCING CHOLESTEROL AND TREATING LIVER AND KIDNEY DISEASE” (McMaster University, priority 2021, published 2026)

Columns and labels:
[1] = tested on: HepG2 cells; assay: DiI-LDL uptake assay in HepG2 cells; type: cell-based, human; conditions: for DiI-LDL cholesterol uptake: HepG2, 10 μM
Method: During the last 5 h of treatment (h 19 to 24) cells were exposed to DiI-LDL (10 μg/ml) and then washed with two changes of pre-warmed (37° C.) HBSS containing 20 mM HEPES prior to analysis.
(§1) The uptake and accumulation of DiI-LDL was then quantified using a fluorescent spectrophotometer (Molecular Devices). […] Live-cell staining of the LDLR was also performed in HepG2 cells exposed to DiI-LDL (FIG. 11 D).

[2] = tested on: PCSK9; assay: Secreted PCSK9 levels in HepG2 cells (ELISA); type: cell-based, human; conditions: for PCSK9 mRNA expression and secreted levels with increasing doses / reduction of secreted PCSK9 levels compared to CF at the same dose: HepG2; for PCSK9 reduction (100 nM): Table 6, HepG2 cells, 24 h, 100 nM as printed in the cell; for efficacy for PCSK9 inhibition compared with caffeine: initial screening
Method: (§2) HuH7 and HepG2 cells were routinely grown in complete Dulbecco's Modified Eagle's Medium (Gibco, Thermofisher Scientific) supplemented with 10% fetal bovine serum (Sigma-Aldrich) and 100 U/ml of penicillin and streptomycin (Sigma-Aldrich). […] All cell treatments were carried out for 24 h unless otherwise stated. Cells were transfected with a cocktail consisting of plasmid DNA (1 μg), X-tremeGENE HP (3 μl; Thermofisher Scientific) and opti-MEM (100 μl; Thermofischer Scientific) per 1 ml complete medium containing plated cells. Human PCSK9 was overexpressed using the bicistronic pIRES-EGFP plasmid; calnexin using the mPA-GFP-N1 plasmid. To block the expression of GRP78 and CD36, siGENOME smartpool siRNA was purchased from GE Dharmacon (M-008198-02 and L-010206-00-0005 respectively) and transfected using lipofectamine RNAiMAX as per manufacturer's protocol.
(§3) Secreted PCSK9 levels were assessed directly in cell culture medium of cells grown in FBS-free medium for 24 h or in the serum isolated from either mice or human subjects. Mouse PCSK9 was measured using the Quantikinine® ELISA kit (#MCP900, R&D Systems) and human PCSK9 using the PCSK9 Quantikinine® ELISA kit (#DCP900, R&D Systems). Serum ApoB levels were also quantified using ELISAs (#DAPB00, R&D Systems). Serum samples were diluted as per manufacturer's instructions.
CF, however, is a well-characterized compound having several health benefits with few known adverse effects. Achieving an optimal level of PCSK9 inhibition absent of the neuro-excitatory effect of CF, however, may be a challenge for the long-term clinical application of these findings. […] See Table 6 for the structure activity relationships of several other known xanthine-based compounds explored at varying doses in HepG2 cells for 24 h.

[3] = tested on: PCSK9; assay: PCSK9 secretion from cultured and primary hepatocytes (ELISA of medium); type: cell-based, human, mouse; conditions: ELISA of medium
Method: as §2, §3
All animal studies were carried out in 8 h-fasted male wild-type, Pcsk9^−/− or Ampkβ1^−/− mice on the C57BL/6J background. CF (25-100 mg/kg-8 h) and CDN (50 mg/kg) treatments were administered via intraperitoneal injection unless specified otherwise. Primary mouse hepatocytes were isolated using a two-step process with EGTA ([…] in HEPES buffer, Sigma Aldrich) and collagenase (0.05% in HEPES buffer, Sigma Aldrich) in 12-week-old male mice on the C57BL/6J background. Cells were then washed, centrifuged, and plated following isolation in cell strainers. Hepatosure® 100-donor pooled primary human hepatocytes were purchased from Xenotech. Primary hepatocytes were regularly grown in William's E medium (Gibco, Thermo Fisher Scientific) containing 10% fetal bovine serum, 100 IU/ml penicillin, and 100 µg/ml streptomycin.

[4] = tested on: HepG2 hepatocytes; assay: LDH cytotoxicity assay in HepG2 hepatocytes; type: cell-based, human; conditions: cultured HepG2 hepatocytes
Method: Secreted PCSK9 levels were assessed using ELISAs and mRNA transcript via real-time PCR. […] Secreted PCSK9, as well as PCSK9 mRNA and SREBP2 mRNA were assessed in these cells. (E) The cytotoxicity of these agents was examined using an LDH assay. […] (G) The uptake of DiI-LDL was also quantified in these cells using a spectrophotometer. Values are presented as the mean and error bars as SD. *, p<0.05 vs. vehicle; NS, non-significant.

[5] = tested on: SREBP2; assay: SREBP2 expression and activation in hepatocytes (real-time PCR, SRE-GFP reporter, immunoblot, immunofluorescence); type: cell-based, human, mouse; conditions: HepG2, real-time PCR
Method: (§4) Cells were washed in phosphate-buffered saline (PBS), lysed in 4× SDS-PAGE lysis buffer and separated on 7-10% polyacrylamide gels in denaturing conditions. Gels were transferred to nitrocellulose membranes using the BioRad mini trans-blot system, blocked in 5% skim milk in tris-buffered saline (TBS) for 1 h and incubated in primary antibody overnight for 16 h at 4° C. Membranes were then exposed to horse radish peroxidase conjugated secondary antibodies and visualized using EZ-ECL chemiluminescent reagent (Froggabio). Band intensities were quantified using ImageJ software ([…]) against membranes reprobed for housekeeping proteins.
Cells were plated in 4-well chamber slides and incubated in complete DMEM for 24 h and exposed to treatments 24 h later for an additional 24 h. Cells were fixed with 4% paraformaldehyde for 30 minutes and washed with either non-permeabilizing, or permeabilizing PBS containing 0.025% Triton-X. Cells were then blocked with 1% bovine serum albumin (BSA) for 30 minutes and stained with anti-GFP antibody for 1 h in PBS containing 1% BSA. Afterwards, cells were washed and incubated with Alexa 488 fluorescently-labelled secondary antibodies (Thermofisher Scientific), as well as the DAPI nuclear stain. Slides were then mounted with permafluor and visualized using the EVOS FL colour imaging system at either 20 or 40× magnification.
(§5) RNA purification/isolation was performed using RNeasy mini kits (Qiagen) and normalized to 2 μg RNA using a NanoDrop® spectrophotometer. Samples were then reverse transcribed into cDNA using Superscript Vilo cDNA Synthesis kit (Thermofisher Scientific). Real-time PCR was executed with Fast SYBR Green (Thermo Fisher Scientific) using the ΔΔct method on the ViiA7 real-time PCR platform (Thermofisher Scientific).
Therefore, the effect of CF on TG-; induced SREBP2 activation was examined. […] SREBP2 activity was then examined at the protein level in HuH7 cells transfected with a plasmid encoding GFP driven by the sterol regulatory element (SRE-GFP; FIG. 2E to G). […] GFP expression was also visualized via immunofluorescent staining and quantified using ImageJ Software.

[6] = tested on: LDLR; assay: LDLR / CD36 expression in cultured hepatocytes; type: cell-based, human; conditions: HepG2, 10 μM, immunofluorescent staining
Source text: as §4, with “Gels were transferred to nitrocellulose membranes using the BioRad mini trans-blot system, blocked in 5% skim milk in tris-buffered saline (TBS) for 1 h and incubated in primary antibody overnight for 16 h at 4° C.” left out
Slides were then mounted with permafluor and visualized using the EVOS FL colour imaging system at either 20 or 40× magnification.
as §5, §1

[7] = tested on: PCSK9; assay: PCSK9 expression in hepatocytes (immunoblot, real-time PCR); type: cell-based, human, mouse; conditions: HuH7; ryanodine 10 μM, CDN 100 μM, 2 APB 50 μM; presence or absence of TG; 24 h
Method: as §2, §4, §5
Cultured immortalized hepatocytes known to express and secrete PCSK9 (Lebeau, P., et al., 2017), including HuH7 and HepG2 cells, as well as primary mouse- and human-hepatocytes (PMH and PHH, respectively), were treated with CF for 24 h and assessed for PCSK9 expression via immunoblots and real-time PCR (FIG. 1 A to D). […] Given that sterol deprivation represents another well-established promoter of SREBP2 activation (Lebeau, P., et al., 2017), cells were also treated with CF in the presence and absence of U18666A (U18) that depletes intracellular sterols. […] Next, HepG2 cells were treated with an increasing dose of CF.

[8] = tested on: ER stress markers (GRP78, ATF4, pPERK, IRE1α, sXBP1, ATF6); assay: ER stress / UPR readouts in hepatocytes; type: cell-based, human; conditions: HuH7; with TG 100 nM
Method: as §4
Following treatment, live cells were incubated in complete DMEM containing 5 μM Thioflavin-T (ThT; Thermofisher Scientific) for 15 minutes. Cells were then fixed in 4% paraformaldehyde and mounted with permafluor. Fluorescent staining was visualized using the EVOS FL colour system at either 20 or 40× magnification.
as §5
Because ER Ca^2+ depletion induces a compensatory unfolded protein response (UPR), it was also postulated that CF may attenuate UPR marker expression by increasing ER Ca^2+ levels. […] Reactive oxygen species production, a process known to occur during conditions of ER stress, was also attenuated by CF (FIG. 9 H). […] While increasing the protein binding ability of chaperones, such as GRP78, CF also attenuates SREBP2-driven gene expression (FIG. 7 L).

CCCCCCCC/C=C\CCCCCCCC(=O)ON1C(=O)CC(S(=O)(=O)O)C1=O (stereo not shown) [sulfosuccinimidyl oleate] was tested, and the “effect of CD36 inhibition on CF-mediated DiI-LDL uptake” value ([1]; HepG2) was “failed to affect CF-mediated DiI-LDL uptake”.
In the case of Cn1cnc2c1c(=O)[nH]c(=O)n2C [theobromine], the “PCSK9 mRNA expression and secreted levels with increasing doses” value [2] is reported as “dose-dependent reduction”.
For CCN(CC)CCO[C@H]1CC[C@@]2(C)C(=CC[C@@H]3[C@@H]2CC[C@]2(C)C(=O)CC[C@@H]32)C1 [U18, U18666A], the “LDLc (DiI-LDL) uptake” value ([1]; HepG2, 24 h treatment, DiI-LDL 5 h) was “reduced LDLc uptake” and the “PCSK9 secretion with Ca2+-modulating agents” value [3] was “increased PCSK9 secretion”.
For Cn1c(=O)c2[nH]c(-c3ccncc3)nc2n(C)c1=O [I-9], the “PCSK9 reduction (100 nM)” value [2] was 0.86 (100 nM).
Cn1c(=O)c2[nH]c(-c3cc(F)c(F)cc3F)nc2n(C)c1=O [Ia-1] was tested, and the “reduction of secreted PCSK9 levels compared to CF at the same dose” value [2] was 2 fold, the “efficacy for PCSK9 inhibition compared with caffeine” value [2] was “significantly greater efficacy for PCSK9 inhibition than caffeine” and the DiI-LDL cholesterol uptake [1] was “significant increase”. For the same compound, the “cytotoxicity (LDH assay)” value [4] was “did not exhibit cytotoxic properties”, the “PCSK9 and SREBP2 mRNA” value [5] was “antagonism of SREBP2 reduced de novo synthesis of PCSK9” and the “cell-surface LDLR expression” value [6] was “significant increase in LDLR expression”.
NCCOB(c1ccccc1)c1ccccc1 [2 APB, 2-APB] was tested, and the “PCSK9 secretion with Ca2+-modulating agents” value [3] was “blocked PCSK9 secretion”, the “SREBP2 and PCSK9 mRNA transcript level” value [7] was “blocked SREBP2 and PCSK9 at the mRNA transcript level” and the “TG-induced GRP78 expression” value [8] was “blocked TG-induced expression”.
In the case of CCCn1c(=O)[nH]c2nc(-c3ccc(S(=O)(=O)N4CCN(c5ccc(Cl)cc5)CC4)cc3)[nH]c2c1=O [PSB603], the “PCSK9 mRNA expression and secreted levels with increasing doses” value [2] is reported as “dose-dependent reduction”.
With Cn1c(=O)c2c(nc(/C=C/c3cccc(Cl)c3)n2C)n(C)c1=O [8CC, 8-(3-Chlorostyryl) CF] the “PCSK9 mRNA expression and secreted levels with increasing doses” value [2] was “dose-dependent reduction”.
Cn1c(=O)c2[nH]c(C3CCCC3)nc2n(C)c1=O [8CD, 8-cyclopentyl-1,3-dimethylxanthine] was tested, and the “PCSK9 mRNA expression and secreted levels with increasing doses” value [2] was “dose-dependent reduction”.
With Cn1c(=O)c2[nH]c(-c3ccc([N+](=O)[O-])cc3)nc2n(C)c1=O [I-10] the “PCSK9 reduction (100 nM)” value [2] was 0.93 (100 nM).
In the case of Cn1c(=O)c2[nH]c(-c3ccc([N+](=O)[O-])o3)nc2n(C)c1=O [Ia-7], the “reduction of secreted PCSK9 levels compared to CF at the same dose” value [2] is reported as 2 fold, the “efficacy for PCSK9 inhibition compared with caffeine” value [2] is reported as “significantly greater efficacy for PCSK9 inhibition than caffeine” and the DiI-LDL cholesterol uptake [1] is reported as “significant increase”. The “cytotoxicity (LDH assay)” value [4] was “did not exhibit cytotoxic properties”, the “PCSK9 and SREBP2 mRNA” value [5] was “antagonism of SREBP2 reduced de novo synthesis of PCSK9” and the “cell-surface LDLR expression” value [6] was “significant increase in LDLR expression”.
With Cn1c(=O)[nH]c2ncn(C)c2c1=O [paraxanthine] the “PCSK9 mRNA expression and secreted levels with increasing doses” value [2] was “dose-dependent reduction”.
